{"source": "ChEMBL document CHEMBL4680233", "about": "“A series of novel aryl-methanone derivatives as inhibitors of FMS-like tyrosine kinase 3 (FLT3) in FLT3-ITD-positive acute myeloid leukemia” (Eur J Med Chem, 2020)", "key": {"[1]": {"molecular_target": "Mitogen-activated protein kinase kinase kinase 20 (Homo sapiens, UniProt Q9NYL2)", "sequence (Q9NYL2 whole entry)": "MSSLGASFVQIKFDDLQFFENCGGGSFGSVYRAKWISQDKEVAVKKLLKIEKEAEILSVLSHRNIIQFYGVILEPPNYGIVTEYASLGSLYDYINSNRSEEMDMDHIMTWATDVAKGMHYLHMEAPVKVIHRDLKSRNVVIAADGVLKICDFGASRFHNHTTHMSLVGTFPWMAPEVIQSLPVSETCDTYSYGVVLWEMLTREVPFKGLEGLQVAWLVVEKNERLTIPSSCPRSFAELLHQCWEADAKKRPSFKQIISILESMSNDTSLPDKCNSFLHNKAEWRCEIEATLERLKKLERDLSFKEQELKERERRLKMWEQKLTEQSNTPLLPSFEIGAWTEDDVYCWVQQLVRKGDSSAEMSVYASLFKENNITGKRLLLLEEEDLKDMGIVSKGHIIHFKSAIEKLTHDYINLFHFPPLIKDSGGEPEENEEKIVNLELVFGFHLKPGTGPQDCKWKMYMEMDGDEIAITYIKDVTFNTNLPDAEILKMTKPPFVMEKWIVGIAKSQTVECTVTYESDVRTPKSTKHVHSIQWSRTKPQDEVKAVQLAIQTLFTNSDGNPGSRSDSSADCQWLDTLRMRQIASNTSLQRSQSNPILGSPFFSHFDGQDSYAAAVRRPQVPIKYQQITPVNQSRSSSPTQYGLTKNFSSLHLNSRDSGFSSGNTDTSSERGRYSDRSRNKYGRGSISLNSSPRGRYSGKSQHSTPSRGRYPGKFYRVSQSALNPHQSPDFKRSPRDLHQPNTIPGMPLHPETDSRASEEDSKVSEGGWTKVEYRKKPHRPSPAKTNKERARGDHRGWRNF", "assay": "Inhibition of human ZAK incubated for 30 mins by Kinobead based assay"}, "[2]": {"molecular_target": "Receptor-type tyrosine-protein kinase FLT3 (Homo sapiens, UniProt P36888, ITD)"}, "[3]": {"molecular_target": "Discoidin domain-containing receptor 2 (Homo sapiens, UniProt Q16832)", "sequence (Q16832 whole entry, the tested form may be a part)": "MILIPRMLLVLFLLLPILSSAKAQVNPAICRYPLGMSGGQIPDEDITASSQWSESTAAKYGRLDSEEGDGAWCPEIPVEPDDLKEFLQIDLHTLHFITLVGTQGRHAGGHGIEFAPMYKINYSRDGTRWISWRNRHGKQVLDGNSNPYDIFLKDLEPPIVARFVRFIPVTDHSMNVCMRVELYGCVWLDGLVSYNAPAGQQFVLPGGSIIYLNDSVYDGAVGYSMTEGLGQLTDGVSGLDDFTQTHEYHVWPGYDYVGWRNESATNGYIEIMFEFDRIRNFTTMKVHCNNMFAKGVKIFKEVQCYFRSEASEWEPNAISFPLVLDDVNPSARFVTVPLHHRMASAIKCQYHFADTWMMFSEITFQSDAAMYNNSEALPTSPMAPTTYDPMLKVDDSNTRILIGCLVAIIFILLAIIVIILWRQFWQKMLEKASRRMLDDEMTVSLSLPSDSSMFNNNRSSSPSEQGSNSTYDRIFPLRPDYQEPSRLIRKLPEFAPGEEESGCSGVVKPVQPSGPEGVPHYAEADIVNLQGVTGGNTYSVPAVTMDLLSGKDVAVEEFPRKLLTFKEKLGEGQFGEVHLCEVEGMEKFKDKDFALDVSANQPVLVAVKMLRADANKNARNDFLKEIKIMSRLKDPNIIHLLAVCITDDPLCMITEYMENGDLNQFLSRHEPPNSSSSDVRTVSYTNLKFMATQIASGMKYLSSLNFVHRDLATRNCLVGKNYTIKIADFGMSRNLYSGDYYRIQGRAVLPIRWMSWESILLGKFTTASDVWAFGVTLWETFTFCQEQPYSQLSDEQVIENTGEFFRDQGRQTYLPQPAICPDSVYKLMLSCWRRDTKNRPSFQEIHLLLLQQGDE", "assay": "Inhibition of human DDR2 incubated for 30 mins by Kinobead based assay"}, "[4]": {"molecular_target": "Receptor-type tyrosine-protein kinase FLT3 (Homo sapiens, UniProt P36888)", "assay": "Inhibition of human FLT3 incubated for 30 mins by Kinobead based assay"}, "[5]": {"molecular_target": "Proto-oncogene tyrosine-protein kinase receptor Ret (Homo sapiens, UniProt P07949)", "assay": "Inhibition of human RET incubated for 30 mins by Kinobead based assay"}, "[6]": {"molecular_target": "Cyclin-dependent kinase 16 (Homo sapiens, UniProt Q00536)", "sequence (Q00536 whole entry)": "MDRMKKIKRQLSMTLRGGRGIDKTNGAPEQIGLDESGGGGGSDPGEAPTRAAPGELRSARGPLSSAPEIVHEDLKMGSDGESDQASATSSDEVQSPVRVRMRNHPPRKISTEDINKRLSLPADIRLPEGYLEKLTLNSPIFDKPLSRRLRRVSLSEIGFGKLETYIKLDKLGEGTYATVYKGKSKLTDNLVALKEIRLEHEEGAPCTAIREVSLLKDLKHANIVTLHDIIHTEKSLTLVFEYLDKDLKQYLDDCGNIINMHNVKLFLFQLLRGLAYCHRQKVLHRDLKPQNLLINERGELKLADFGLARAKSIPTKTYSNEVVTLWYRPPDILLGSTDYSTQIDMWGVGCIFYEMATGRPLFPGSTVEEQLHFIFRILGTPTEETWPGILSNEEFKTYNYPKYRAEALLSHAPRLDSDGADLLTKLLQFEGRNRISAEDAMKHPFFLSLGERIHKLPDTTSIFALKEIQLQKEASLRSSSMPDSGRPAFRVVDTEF", "assay": "Inhibition of human CDK16 incubated for 30 mins by Kinobead based assay"}, "Ephrin type-A receptor 7": {"molecular_target": "Ephrin type-A receptor 7 (Homo sapiens, UniProt Q15375)", "sequence (Q15375 whole entry)": "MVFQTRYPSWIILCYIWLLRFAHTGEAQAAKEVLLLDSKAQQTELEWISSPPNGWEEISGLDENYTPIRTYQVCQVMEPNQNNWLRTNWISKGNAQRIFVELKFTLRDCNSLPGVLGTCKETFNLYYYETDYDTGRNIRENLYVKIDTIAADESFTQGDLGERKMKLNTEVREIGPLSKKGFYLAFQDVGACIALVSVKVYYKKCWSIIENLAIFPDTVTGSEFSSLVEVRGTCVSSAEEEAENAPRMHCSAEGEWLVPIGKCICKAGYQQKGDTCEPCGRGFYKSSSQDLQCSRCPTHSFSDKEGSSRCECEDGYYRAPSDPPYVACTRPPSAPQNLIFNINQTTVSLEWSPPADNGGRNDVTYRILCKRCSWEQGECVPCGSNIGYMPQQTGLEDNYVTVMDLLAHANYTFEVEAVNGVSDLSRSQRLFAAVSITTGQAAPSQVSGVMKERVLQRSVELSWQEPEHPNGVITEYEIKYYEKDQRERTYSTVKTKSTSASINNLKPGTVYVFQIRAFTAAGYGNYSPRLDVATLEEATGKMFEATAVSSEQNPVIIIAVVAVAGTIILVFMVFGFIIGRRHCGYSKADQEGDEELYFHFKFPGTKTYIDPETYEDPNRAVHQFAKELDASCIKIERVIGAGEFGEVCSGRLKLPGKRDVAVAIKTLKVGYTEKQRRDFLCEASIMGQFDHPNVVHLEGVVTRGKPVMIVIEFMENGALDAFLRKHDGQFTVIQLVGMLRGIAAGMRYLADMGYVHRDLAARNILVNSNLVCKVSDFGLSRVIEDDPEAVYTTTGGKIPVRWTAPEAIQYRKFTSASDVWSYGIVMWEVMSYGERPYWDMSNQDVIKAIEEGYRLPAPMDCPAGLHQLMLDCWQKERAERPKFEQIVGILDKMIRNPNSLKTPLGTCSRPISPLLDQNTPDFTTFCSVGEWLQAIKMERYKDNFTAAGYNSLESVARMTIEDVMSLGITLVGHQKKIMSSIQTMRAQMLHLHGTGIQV", "assay": "Inhibition of human EPHA7 incubated for 30 mins by Kinobead based assay"}, "[7]": {"molecular_target": "Receptor-type tyrosine-protein kinase FLT3 (Homo sapiens, UniProt P36888, D835Y)"}, "[8]": {"molecular_target": "Mitogen-activated protein kinase kinase kinase kinase 4 (Homo sapiens, UniProt O95819)", "sequence (O95819 whole entry)": "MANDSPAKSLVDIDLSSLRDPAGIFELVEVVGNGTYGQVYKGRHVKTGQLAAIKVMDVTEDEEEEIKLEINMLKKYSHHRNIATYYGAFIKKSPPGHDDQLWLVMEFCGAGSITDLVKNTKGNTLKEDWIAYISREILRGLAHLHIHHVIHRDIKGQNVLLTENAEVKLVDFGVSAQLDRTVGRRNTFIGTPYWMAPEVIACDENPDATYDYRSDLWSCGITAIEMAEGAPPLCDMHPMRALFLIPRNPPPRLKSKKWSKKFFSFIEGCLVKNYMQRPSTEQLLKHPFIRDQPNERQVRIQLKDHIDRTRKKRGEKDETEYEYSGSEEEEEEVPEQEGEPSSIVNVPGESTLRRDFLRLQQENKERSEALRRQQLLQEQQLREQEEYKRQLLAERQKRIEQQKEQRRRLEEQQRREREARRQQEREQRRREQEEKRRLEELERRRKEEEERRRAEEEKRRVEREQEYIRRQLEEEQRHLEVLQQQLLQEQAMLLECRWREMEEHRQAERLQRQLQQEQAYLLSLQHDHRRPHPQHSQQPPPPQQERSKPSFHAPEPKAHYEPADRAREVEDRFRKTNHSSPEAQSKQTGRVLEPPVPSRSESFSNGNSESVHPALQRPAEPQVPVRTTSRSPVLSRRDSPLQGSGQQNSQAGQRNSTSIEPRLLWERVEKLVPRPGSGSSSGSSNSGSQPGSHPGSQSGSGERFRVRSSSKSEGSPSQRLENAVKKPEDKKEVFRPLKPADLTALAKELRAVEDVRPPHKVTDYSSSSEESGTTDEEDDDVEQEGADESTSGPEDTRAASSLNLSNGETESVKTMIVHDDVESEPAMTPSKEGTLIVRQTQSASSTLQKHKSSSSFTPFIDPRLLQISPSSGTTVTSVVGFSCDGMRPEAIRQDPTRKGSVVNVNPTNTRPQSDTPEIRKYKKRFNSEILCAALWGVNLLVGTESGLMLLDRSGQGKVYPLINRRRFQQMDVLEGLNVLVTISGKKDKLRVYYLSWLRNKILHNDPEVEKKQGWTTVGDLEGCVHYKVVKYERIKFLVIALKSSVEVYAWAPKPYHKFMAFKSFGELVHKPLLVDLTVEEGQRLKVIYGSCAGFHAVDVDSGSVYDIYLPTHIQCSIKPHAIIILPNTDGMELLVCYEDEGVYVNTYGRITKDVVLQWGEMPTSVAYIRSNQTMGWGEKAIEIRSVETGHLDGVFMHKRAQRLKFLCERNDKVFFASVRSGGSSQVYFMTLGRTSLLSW", "assay": "Inhibition of human MAP4K4 incubated for 30 mins by Kinobead based assay"}, "[9]": {"molecular_target": "Receptor-type tyrosine-protein kinase FLT3 (Homo sapiens, UniProt P36888, F691L/ITD)", "description": "Binding affinity to human partial length FLT3 ITD/F691L double mutant expressed in mammalian expression system by Kinomescan method"}, "[10]": {"molecular_target": "Receptor-type tyrosine-protein kinase FLT3 (Homo sapiens) (UniProt P36888)", "settings": "MV4-11, dose 20-40 nM, time 3.0 hrs"}, "MV4-11 [11]": {"tested_on": "MV4-11", "assay": "cells", "settings": "Homo sapiens, MV4-11, 72 h", "description": "Cytotoxicity against human MV4-11 cells assessed as reduction in cell viability after 72 hrs by trypan blue dye exclusion method"}, "MOLM-13": {"tested_on": "MOLM-13", "assay": "cells", "settings": "Homo sapiens, MOLM-13, 96 h", "description": "Cytotoxicity against human MOLM-13 cells assessed as reduction in cell viability after 4 days by CellTiter-Blue assay"}, "TF-1": {"tested_on": "TF-1", "assay": "cells", "settings": "Homo sapiens, TF-1, 96 h", "description": "Cytotoxicity against human TF-1 cells assessed as reduction in cell viability after 4 days by CellTiter-Blue assay"}, "THP-1": {"tested_on": "THP-1", "assay": "cells", "settings": "Homo sapiens, THP-1, 96 h", "description": "Cytotoxicity against human THP-1 cells assessed as reduction in cell viability after 4 days by CellTiter-Blue assay"}, "cells [12]": {"assay": "cells", "settings": "Homo sapiens, ME-1, 96 h", "description": "Cytotoxicity against human ME-1 cells assessed as reduction in cell viability after 4 days by CellTiter-Blue assay"}, "L-363": {"tested_on": "L-363", "assay": "cells", "settings": "Homo sapiens, L-363, 96 h", "description": "Cytotoxicity against human L-363 cells assessed as reduction in cell viability after 4 days by CellTiter-Blue assay"}, "KG-1": {"tested_on": "KG-1", "assay": "cells", "settings": "Homo sapiens, KG-1, 96 h", "description": "Cytotoxicity against human KG-1 cells assessed as reduction in cell viability after 4 days by CellTiter-Blue assay"}, "cells [13]": {"assay": "cells", "settings": "Homo sapiens, MOLP-2, 96 h", "description": "Cytotoxicity against human MOLP-2 cells assessed as reduction in cell viability after 4 days by CellTiter-Blue assay"}, "RPMI-8226": {"tested_on": "RPMI-8226", "assay": "cells", "settings": "Homo sapiens, RPMI-8226, 96 h", "description": "Cytotoxicity against human RPMI-8226 cells assessed as reduction in cell viability after 4 days by CellTiter-Blue assay"}, "NB-4": {"tested_on": "NB-4", "assay": "cells", "settings": "Homo sapiens, NB-4, 96 h", "description": "Cytotoxicity against human NB-4 cells assessed as reduction in cell viability after 4 days by CellTiter-Blue assay"}, "OPM-2": {"tested_on": "OPM-2", "assay": "cells", "settings": "Homo sapiens, OPM-2, 96 h", "description": "Cytotoxicity against human OPM-2 cells assessed as reduction in cell viability after 4 days by CellTiter-Blue assay"}, "OCI-AML-5": {"tested_on": "OCI-AML-5", "assay": "cells", "settings": "Homo sapiens, OCI-AML-5, 96 h", "description": "Cytotoxicity against human OCI-AML5 cells assessed as reduction in cell viability after 4 days by CellTiter-Blue assay"}, "KG-1a": {"tested_on": "KG-1a", "assay": "cells", "settings": "Homo sapiens, 96 h", "description": "Cytotoxicity against human KG-1a cells assessed as reduction in cell viability after 4 days by CellTiter-Blue assay"}, "cells [14]": {"assay": "cells", "settings": "Homo sapiens, PL-21, 96 h", "description": "Cytotoxicity against human PL21 cells assessed as reduction in cell viability after 4 days by CellTiter-Blue assay"}, "physchem": {"assay": "physchem", "settings": "water", "description": "Solubility of compound in water at 10 mg after 3 hrs by UV-spectra analysis"}, "[15]": {"assay": "Toxicity in NMRI nu/nu mouse assessed as lethality at 75 mg/kg/day, po for 3 days", "format": "organism-based", "settings": "in vivo, 72 h, time 3 day"}, "ML-2": {"tested_on": "ML-2", "assay": "cells", "settings": "Homo sapiens, ML-2, 96 h", "description": "Cytotoxicity against human ML-2 cells assessed as reduction in cell viability after 4 days by CellTiter-Blue assay"}, "[16]": {"assay": "Toxicity in NMRI nu/nu mouse assessed as weight gain at 75 mg/kg/day, po for 3 days relative to control", "format": "organism-based", "settings": "in vivo, 72 h, time 3 day"}, "NOMO-1": {"tested_on": "NOMO-1", "assay": "cells", "settings": "Homo sapiens, NOMO-1, 96 h", "description": "Cytotoxicity against human NOMO-1 cells assessed as reduction in cell viability after 4 days by CellTiter-Blue assay"}, "cells [17]": {"assay": "cells", "settings": "Homo sapiens, Mono-Mac-1, 96 h", "description": "Cytotoxicity against human MONO-MAC-1 cells assessed as reduction in cell viability after 4 days by CellTiter-Blue assay"}, "MV4-11 [18]": {"tested_on": "MV4-11", "assay": "cells", "settings": "Homo sapiens, MV4-11, 96 h", "description": "Cytotoxicity against human MV4-11 cells assessed as reduction in cell viability after 4 days by CellTiter-Blue assay"}, "cells [19]": {"assay": "cells", "settings": "Homo sapiens, OCI-M1, 96 h", "description": "Cytotoxicity against human OCI-M1 cells assessed as reduction in cell viability after 4 days by CellTiter-Blue assay"}, "MONO-MAC-6": {"tested_on": "MONO-MAC-6", "assay": "cells", "settings": "Homo sapiens, MONO-MAC-6, 96 h", "description": "Cytotoxicity against human MONO-MAC-6 cells assessed as reduction in cell viability after 4 days by CellTiter-Blue assay"}, "OCI-AML2": {"tested_on": "OCI-AML2", "assay": "cells", "settings": "Homo sapiens, OCI-AML2, 96 h", "description": "Cytotoxicity against human OCI-AML2 cells assessed as reduction in cell viability after 4 days by CellTiter-Blue assay"}, "EOL1": {"tested_on": "EOL1", "assay": "cells", "settings": "Homo sapiens, EOL1, 96 h", "description": "Cytotoxicity against human EOL1 cells assessed as reduction in cell viability after 4 days by CellTiter-Blue assay"}, "IM-9": {"tested_on": "IM-9", "assay": "cells", "settings": "Homo sapiens, IM-9, 96 h", "description": "Cytotoxicity against human IM-9 cells assessed as reduction in cell viability after 4 days by CellTiter-Blue assay"}, "SKM-1": {"tested_on": "SKM-1", "assay": "cells", "settings": "Homo sapiens, SKM-1, 96 h", "description": "Cytotoxicity against human SKM-1 cells assessed as reduction in cell viability after 4 days by CellTiter-Blue assay"}, "U-266": {"tested_on": "U-266", "assay": "cells", "settings": "Homo sapiens, U-266, 96 h", "description": "Cytotoxicity against human U-266 cells assessed as reduction in cell viability after 4 days by CellTiter-Blue assay"}, "HL-60": {"tested_on": "HL-60", "assay": "cells", "settings": "Homo sapiens, HL-60, 96 h", "description": "Cytotoxicity against human HL-60 cells assessed as reduction in cell viability after 4 days by CellTiter-Blue assay"}, "KMOE-2": {"tested_on": "KMOE-2", "assay": "cells", "settings": "Homo sapiens, KMOE-2, 96 h", "description": "Cytotoxicity against human KMOE-2 cells assessed as reduction in cell viability after 4 days by CellTiter-Blue assay"}}, "note": "Active and inactive are the calls of the source. No cut-off for these calls is given here.", "data": [{"smiles": "CC(C)(C)c1cc(NC(=O)Nc2ccc3oc(C(=O)c4cc5cc(O)ccc5[nH]4)cc3c2)no1", "values": [{"measurement": "EC50", "setting": "[1]", "result": 3260, "unit": "nM"}, {"measurement": "IC50", "setting": "[2]", "result": 2.3, "unit": "nM"}, {"measurement": "EC50", "setting": "[3]", "result": 2490, "unit": "nM"}, {"measurement": "EC50", "setting": "[4]", "result": 1770, "unit": "nM"}, {"measurement": "EC50", "setting": "[5]", "result": 2490, "unit": "nM"}, {"measurement": "EC50", "setting": "[6]", "result": 1770, "unit": "nM"}, {"measurement": "EC50", "setting": "Ephrin type-A receptor 7", "result": 3260, "unit": "nM"}, {"measurement": "IC50", "setting": "[7]", "result": 4.84, "unit": "nM"}, {"measurement": "EC50", "setting": "[8]", "result": 3860, "unit": "nM"}, {"measurement": "Kd", "setting": "[9]", "result": 115, "unit": "nM"}, {"measurement": "inhibition", "setting": "[10]", "result": "Active"}]}, {"smiles": "CC(C)(C)c1cc(NC(=O)Nc2ccc3[nH]c(C(=O)c4cc5cc(O)ccc5[nH]4)cc3c2)no1", "values": [{"measurement": "IC50", "setting": "MV4-11 [11]", "result": 1.7, "unit": "nM"}]}, {"smiles": "Cc1cccc2[nH]c(C(=O)c3cc4cccc(NC(=O)Nc5cc(C(C)(C)C)on5)c4[nH]3)cc12", "values": [{"measurement": "IC50", "setting": "MV4-11 [11]", "result": "> 100", "unit": "nM"}]}, {"smiles": "Cc1cc(NC(=O)Nc2ccc3[nH]c(C(=O)c4cc5cc(O)ccc5[nH]4)cc3c2)no1", "values": [{"measurement": "IC50", "setting": "MV4-11 [11]", "result": "> 100", "unit": "nM"}]}, {"smiles": "CC(C)(C)c1cc(NC(=O)Nc2cnc3[nH]c(C(=O)c4cc5cc(O)ccc5[nH]4)cc3c2)no1", "values": [{"measurement": "IC50", "setting": "MV4-11 [11]", "result": "> 100", "unit": "nM"}]}, {"smiles": "Cc1cccc2[nH]c(C(=O)c3cc4c(NC(=O)Nc5cc(C(C)(C)C)on5)cccc4[nH]3)cc12", "values": [{"measurement": "IC50", "setting": "MV4-11 [11]", "result": "> 100", "unit": "nM"}]}, {"smiles": "CC(C)(C)c1cc(NC(=O)Nc2ccc3oc(C(=O)c4cc5cc(OC(=O)N6CCC(N7CCCCC7)CC6)ccc5[nH]4)cc3c2)no1.Cl", "values": [{"measurement": "IC50", "setting": "MOLM-13", "result": 0.002, "unit": "nM"}, {"measurement": "IC50", "setting": "TF-1", "result": 5.31, "unit": "nM"}, {"measurement": "IC50", "setting": "THP-1", "result": 2.12, "unit": "nM"}, {"measurement": "IC50", "setting": "cells [12]", "result": 2.36, "unit": "nM"}, {"measurement": "IC50", "setting": "L-363", "result": 1.61, "unit": "nM"}, {"measurement": "IC50", "setting": "KG-1", "result": 0.556, "unit": "nM"}, {"measurement": "IC50", "setting": "cells [13]", "result": 2.27, "unit": "nM"}, {"measurement": "IC50", "setting": "RPMI-8226", "result": 2.37, "unit": "nM"}, {"measurement": "IC50", "setting": "NB-4", "result": 3.6, "unit": "nM"}, {"measurement": "IC50", "setting": "OPM-2", "result": 1.33, "unit": "nM"}, {"measurement": "IC50", "setting": "OCI-AML-5", "result": 0.159, "unit": "nM"}, {"measurement": "IC50", "setting": "KG-1a", "result": 0.613, "unit": "nM"}, {"measurement": "IC50", "setting": "cells [14]", "result": 1.3, "unit": "nM"}, {"measurement": "solubility at 3 h", "setting": "physchem", "result": 230, "unit": "µg/mL"}, {"measurement": "Activity", "setting": "[15]", "result": "Non-Toxic"}, {"measurement": "IC50", "setting": "ML-2", "result": 1.49, "unit": "nM"}, {"measurement": "Activity", "setting": "[16]", "result": 3, "unit": "%"}, {"measurement": "IC50", "setting": "NOMO-1", "result": 1.21, "unit": "nM"}, {"measurement": "IC50", "setting": "cells [17]", "result": 0.001, "unit": "nM"}, {"measurement": "IC50", "setting": "MV4-11 [18]", "result": 0.0009, "unit": "nM"}, {"measurement": "IC50", "setting": "cells [19]", "result": 0.695, "unit": "nM"}, {"measurement": "IC50", "setting": "MONO-MAC-6", "result": 0.011, "unit": "nM"}, {"measurement": "IC50", "setting": "OCI-AML2", "result": 1.39, "unit": "nM"}, {"measurement": "IC50", "setting": "EOL1", "result": 0.0001, "unit": "nM"}, {"measurement": "IC50", "setting": "IM-9", "result": 2.25, "unit": "nM"}, {"measurement": "IC50", "setting": "SKM-1", "result": 1.35, "unit": "nM"}, {"measurement": "IC50", "setting": "U-266", "result": 1.37, "unit": "nM"}, {"measurement": "IC50", "setting": "HL-60", "result": 2.35, "unit": "nM"}, {"measurement": "IC50", "setting": "KMOE-2", "result": 5.33, "unit": "nM"}]}, {"smiles": "CC(C)(C)c1nnc(NC(=O)Nc2ccc3[nH]c(C(=O)c4cc5cc(O)ccc5[nH]4)cc3c2)s1", "values": [{"measurement": "IC50", "setting": "MV4-11 [11]", "result": 14.4, "unit": "nM"}]}, {"smiles": "CC(C)(C)c1cc(NC(=O)Nc2ccc3[nH]c(C(=O)c4cc5cc(O)ccc5o4)cc3c2)no1", "values": [{"measurement": "IC50", "setting": "MV4-11 [11]", "result": 0.78, "unit": "nM"}]}, {"smiles": "Cc1cccc2[nH]c(C(=O)c3cc4cc(NC(=O)Nc5cc(C(C)(C)C)on5)ccc4[nH]3)cc12", "values": [{"measurement": "IC50", "setting": "MV4-11 [11]", "result": 13.5, "unit": "nM"}]}, {"smiles": "CC(C)(C)c1cc(NC(=O)Nc2cc3cc(C(=O)c4cc5cc(O)ccc5o4)[nH]c3cn2)no1", "values": [{"measurement": "IC50", "setting": "MV4-11 [11]", "result": 29.8, "unit": "nM"}]}, {"smiles": "Cc1cccc2[nH]c(C(=O)c3cc4ccc(NC(=O)Nc5cc(C(C)(C)C)on5)cc4[nH]3)cc12", "values": [{"measurement": "IC50", "setting": "MV4-11 [11]", "result": 23.5, "unit": "nM"}]}]}
